# Where a name gives a salt, the structure may show the parent alone. Read-outs that look alike come from different tables or passages of the source.
# Tests used:
# [1] = tested on: Staphylococcus aureus subsp. aureus (ATCC29213); assay: MIC, broth microdilution (CLSI), Staphylococcus aureus ATCC29213; type: cell-based; conditions: Staphylococcus aureus
# [2] = tested on: E. coli RNase P RNA, M1 RNA; assay: Inhibition of bacterial RNase P activity, IC50 determination (cleavage of pATSerUG by M1 RNA); type: biochemical; conditions: NI: No inhibition
# [3] = tested on: Escherichia coli (ATCC25922); assay: MIC, broth microdilution (CLSI), Escherichia coli; conditions: Escherichia coli, ATCC25922, read-out: E. coli ATCC 25922 MIC, Table XIII
# [4] = ATCC29213, Table XIII, read-out: S. aureus ATCC 29213 MIC
# [5] = ATCC29213, read-out: S. aureus ATCC 29213 MIC, Table XIII
Structure (SMILES),"MIC [1, 4]",IC50 ([2]; hydrochloride salt),MIC [3],IC50 [2],"MIC [1, 5]"
"Cc1cccc(C(CCNCCCN)c2cn(C3CCCCC3)c3ccccc23)c1.Cl.Cl (stereo not drawn) [Compound 310, N1-(3-(1-cyclohexyl-1H-indol-3-yl)-3-(m-tolyl)propyl)propane-1,3-diamine hydrochloride salt]",4 µg/mL,18 µM,4 µg/mL,,
"CC(=O)N1CCC(NCCC(c2cccc(C)c2)c2cn(C3CCCCC3)c3ccccc23)CC1.Cl (stereo not drawn) [Compound 373, 1-(4-((3-(1-cyclohexyl-1H-indol-3-yl)-3-(m-tolyl)propyl)amino)piperidin-1-yl) ethan-1-one salt]",8 µg/mL,,> 128 µg/mL,120 µM,
"Cc1cccc(CC(CCNC2CCNCC2)c2cn(C3CCCCC3)c3ccccc23)c1 (stereo not drawn) [Compound 418, N-(3-(1-cyclohexyl-1H-indol-3-yl)-4-(m-tolyl)butyl)piperidin-4-amine hydrochloride salt]",,,4 µg/mL,17 µM,8 µg/mL
"CC(C)=CCC/C(C)=C/Cn1cc(C(CCNCCCN)C2CCCCC2)c2ccccc21 (stereo not drawn) [Compound 421, (E)-N1-(3-cyclohexyl-3-(1-(3,7-dimethylocta-2,6-dien-1-yl)-1H-indol-3-yl)propyl)propane-1,3-diamine]",4 µg/mL,,8 µg/mL,8.3 µM,
"Cc1cccc(C(CCNCCCN)c2cn(C3CCCCC3)c3ccc(Br)cc23)c1.Cl.Cl (stereo not drawn) [Compound 655, N1-(3-(5-bromo-1-cyclohexyl-1H-indol-3-yl)-3-(m-tolyl)propyl)propane-1,3-diamine hydrochloride salt]",4 µg/mL,,4 µg/mL,11 µM,
"NCCCNCCC(c1cccc(OC(F)(F)F)c1)c1cn(C2CCCCC2)c2ccc(C(N)=O)cc12 (stereo not drawn) [Compound 376, 3-(3-((3-aminopropyl)amino)-1-(3-(trifluoromethoxy)phenyl)propyl)-1-cyclohexyl-1H-indole-5-carboxamide]",16 µg/mL,,32 µg/mL,40 µM,
"Cc1cccc(C(CCNCCCN)c2cn(C3CCCCC3)c3ccc(-c4ccncc4)cc23)c1.Cl.Cl (stereo not drawn) [Compound 412, N1-(3-(1-cyclohexyl-5-(pyridin-4-yl)-1H-indol-3-yl)-3-(m-tolyl)propyl) propane-1,3-diamine hydrochloride salt]",2 µg/mL,,4 µg/mL,18 µM,
"Cc1cccc(C(CCNC2CCNCC2)c2cn(C3CC4CCC3C4)c3ccccc23)c1 (stereo not drawn) [Compound 323, hydrochloride salt]",,,4 µg/mL,42 µM,8 µg/mL
"Cc1cccc(C(CCNCCCN)c2cn(C3CCNCC3)c3ccccc23)c1.Cl.Cl.Cl (stereo not drawn) [Compound 322, N1-(3-(1-(piperidin-4-yl)-1H-indol-3-yl)-3-(m-tolyl)propyl)propane-1,3-diamine hydrochloride salt]",16 µg/mL,,> 128 µg/mL,120 µM,
"Cl.Cl.NCCCNCCC(c1cccc(F)c1)c1cn(C2CCCCC2)c2ccccc12 (stereo not drawn) [Compound 344, N1-(3-(1-cyclohexyl-1H-indol-3-yl)-3-(3-fluorophenyl)propyl) propane-1,3-diamine hydrochloride salt]",8 µg/mL,,4 µg/mL,52 µM,
"N#Cc1ccc2c(C(CCNC3CCC(N)CC3)c3cccc(OC(F)(F)F)c3)cn(C3CCCCC3)c2c1 [Compound 415, 3-(3-(((1S,4S)-4-aminocyclohexyl)amino)-1-(3-(trifluoromethoxy)phenyl)propyl)-1-cyclohexyl-1H-indole-6-carbonitrile hydrochloride salt]",,,16 µg/mL,16 µM,4 µg/mL
"CCCCCCCCn1cc(C(CCNCCCN)C2CCCCC2)c2cc(C#N)ccc21.Cl.Cl (stereo not drawn) [Compound 427, 3-(3-((3-aminopropyl)amino)-1-cyclohexylpropyl)-1-octyl-1H-indole-5-carbonitrile hydrochloride salt]",2 µg/mL,,4 µg/mL,4.4 µM,
"Cl.Cl.N#Cc1ccc2c(C(CCNCCCN)c3cccc(OC(F)(F)F)c3)cn(C3CCCCC3)c2c1 (stereo not drawn) [Compound 410, 3-(3-((3-aminopropyl)amino)-1-(3-(trifluoromethoxy)phenyl)propyl)-1-cyclohexyl-1H-indole-6-carbonitrile salt]",4 µg/mL,,4 µg/mL,10 µM,
"Cl.Cl.N#Cc1ccc2c(c1)c(C(CCN[C@H]1CC[C@H](N)CC1)C1CCCCC1)cn2C1CCCCC1 (stereo partly drawn) [Compound 407, 3-(3-(((1R,4R)-4-aminocyclohexyl)amino)-1-cyclohexylpropyl)-1-cyclohexyl-1H-indole-5-carbonitrile salt]",4 µg/mL,,8 µg/mL,23 µM,
"Cc1ccccc1-c1ccc2c(c1)c(CCCNCCCN)cn2C1CCCCC1.Cl.Cl [Compound 362, N1-(3-(1-cyclohexyl-5-(o-tolyl)-1H-indol-3-yl)propyl)propane-1,3-diamine hydrochloride salt]",4 µg/mL,,4 µg/mL,8.3 µM,
"Cc1cccc(C(CCNC2CCN(C(N)=O)CC2)c2cn(C3CCCCC3)c3ccccc23)c1.Cl.Cl (stereo not drawn) [Compound 374, 4-((3-(1-cyclohexyl-1H-indol-3-yl)-3-(m-tolyl)propyl)amino)piperidine-1-carboxamide hydrochloride salt]",16 µg/mL,,> 128 µg/mL,53 µM,
"Cc1cccc(C(CCNCCCN)c2cn(C3CC4CCC3C4)c3ccccc23)c1.Cl.Cl (stereo not drawn) [Compound 341, N1-(3-(1-(bicyclo[2.2.1]heptan-2-yl)-1H-indol-3-yl)-3-(m-tolyl)propyl)propane-1,3-diamine hydrochloride salt]",8 µg/mL,,4 µg/mL,32 µM,
"Cc1cccc(C(CCN(CCCN)CCCN)c2cn(C3CCCCC3)c3ccccc23)c1 (stereo not drawn) [Compound 363, N1-(3-aminopropyl)-N1-(3-(1-cyclohexyl-1H-indol-3-yl)-3-(m-tolyl)propyl)propane-1,3-diamine hydrochloride salt]",,,32 µg/mL,12 µM,16 µg/mL
"Cl.Cl.NCCCNCCC(c1cccc(OC(F)(F)F)c1)c1cn(C2CCCCC2)c2ccccc12 (stereo not drawn) [Compound 370, N1-(3-(1-cyclohexyl-1H-indol-3-yl)-3-(3-(trifluoromethoxy)phenyl)propyl) propane-1,3-diamine salt]",4 µg/mL,,4 µg/mL,8.4 µM,
"Cc1cccc(C(CCNC2CCNCC2)c2cn(CC3CCCCC3)c3ccc([N+](=O)[O-])cc23)c1 (stereo not drawn) [Compound 428, N-(3-(1-(cyclohexylmethyl)-5-nitro-1H-indol-3-yl)-3-(m-tolyl)propyl)piperidin-4-amine hydrochloride salt]",,,32 µg/mL,15 µM,4 µg/mL
"Cc1cccc(C(CCNCCCN)c2cn(C3CCCCC3)c3ccc(C#N)cc23)c1.Cl.Cl (stereo not drawn) [Compound 379, 3-(3-((3-aminopropyl)amino)-1-(m-tolyl)propyl)-1-cyclohexyl-1H-indole-5-carbonitrile hydrochloride salt]",8 µg/mL,,8 µg/mL,34 µM,
"Cl.Cl.N[C@H]1CC[C@H](NCCCc2cn(C3CCCCC3)c3ccc(C4CCCCC4)cc23)CC1 [Compound 398, (1r,4r)-N1-(3-(1,5-dicyclohexyl-1H-indol-3-yl)propyl)cyclohexane-1,4-diamine hydrochloride salt]",2 µg/mL,,4 µg/mL,9 µM,
"NC1CCC(NCCC(c2cccc(OC(F)(F)F)c2)c2cn(C3CCCCC3)c3ccccc23)CC1 [Compound 393, (1S,4S)- -N1-(3-(1-cyclohexyl-1H-indol-3-yl)-3-(3-(trifluoromethoxy)phenyl)propyl)cyclohexane-1,4-diamine hydrochloride salt]",,16 µM,8 µg/mL,,4 µg/mL
"Cc1cccc(C(CCN[C@H]2CC[C@H](N)CC2)c2cn(C3CCCCC3)c3ccc(-c4ccnn4C)cc23)c1.Cl.Cl (stereo partly drawn) [Compound 409, (1R,4R)-N1-(3-(1-cyclohexyl-5-(1-methyl-1H-pyrazol-5-yl)-1H-indol-3-yl)-3-(m-tolyl)propyl)cyclohexane-1,4-diamine hydrochloride salt]",4 µg/mL,,16 µg/mL,39 µM,
"c1cncc(C(CCNC2CCNCC2)c2cn(C3CC4CCC3C4)c3ccccc23)c1 (stereo not drawn) [Compound 325, hydrochloride salt]",,,64 µg/mL,,64 µg/mL
"Cc1cccc(CC(CCNCCCN)c2cn(C3CCCCC3)c3ccccc23)c1.Cl.Cl (stereo not drawn) [Compound 419, N1-(3-(1-cyclohexyl-1H-indol-3-yl)-4-(m-tolyl)butyl)propane-1,3-diamine hydrochloride salt]",8 µg/mL,,8 µg/mL,,
"CN(Cc1cn(CC2CCCCC2)c2ccccc12)CC1CCNCC1 [Compound 301, 1-(1-(cyclohexylmethyl)-1H-indol-3-yl)-N-methyl-N-(piperidin-4-ylmethyl)methanamine hydrochloride salt]",,,128 µg/mL,,128 µg/mL
"Cc1cccc(C(CCOCCCN(C)C)c2cn(C3CCCCC3)c3ccccc23)c1 (stereo not drawn) [Compound 364, 3-(3-(1-cyclohexyl-1H-indol-3-yl)-3-(m-tolyl)propoxy)-N,N-dimethylpropan-1-amine salt]",8 µg/mL,,> 128 µg/mL,,
"Cl.Cl.c1ccc2c(c1)c(C(CCNC1CCNCC1)c1ccncc1)cn2C1CCCCC1 (stereo not drawn) [Compound 335, N-(3-(1-cyclohexyl-1H-indol-3-yl)-3-(pyridin-4-yl)propyl)piperidin-4-amine hydrochloride salt]",64 µg/mL,,64 µg/mL,,
"Cc1cccc(C(CCNC2CCC(N)CC2)c2cn(C3CCNCC3)c3ccccc23)c1 (stereo not drawn) [Compound 306, N1-(3-(1-(piperidin-4-yl)-1H-indol-3-yl)-3-(m-tolyl)propyl)cyclohexane-1,4-diamine hydrochloride salt]",,,> 128 µg/mL,,16 µg/mL
